One assay relates to RG2 glioma cells. Briefly: Microglia-mediated tumor cytotoxicity on co-cultured RG2 cells (modified MTT reduction assay). Type of assay: cell-based, rat. Conditions: L-NMA exposure. As to the method: Co-cultures of microglia and RG2 cells were established and cytotoxicity assays were carried out as follows: isolated rat microglial cells (5×10^5 cells/well) were added to a 96-well plate containing 200 μl/well of complete medium. After allowing the cells to adhere for one hour, the medium was aspirated and the appropriate number of RG2 cells (from 2.5×10^4 to 1×10^6 to yield effector:target [E:T] ratios from 0.5:1 to 20:1) was added to the wells in 200 μl of fresh, complete medium. As controls, glioma cells and microglia were cultured separately in other wells of the plate. Microglia-mediated tumor cytotoxicity was measured using a modified MTT reduction assay.
All experiments were performed in quadruplicate. Some co-culture experiments were carried out on glass cover slips to provide visual documentation of cytotoxicity. The cover slips were immersed in paraformaldehyde solution and then subjected to cresyl violet staining.
To determine the contributions of TNF-α and NO to the tumoricidal activity of microglia, MTT cytotoxicity assays were carried out in the presence of TNF-α binding protein (TNF-bp; an inhibitor of TNF-α) and N^G-monomethyl-L-arginine (L-NMA; an inhibitor of NO production).
The effects of TGF-β on microglial tumor cytotoxicity were also investigated in MTT cytotoxicity assays in the presence of TGF-β.
For orientation: Tetrazolium dyes change colour on reduction, which living cells bring about.

Assay [1] concerns rat microglia. Kind of assay: TNF-α production by cultured rat microglia (rat-specific TNF-α ELISA). The class given is cell-based. Particulars: in the presence of TGF-β. As to the method:
(§1) The ability of cultured rat microglia to produce the soluble cytotoxic agents, TNF-αand nitric oxide, was examined. Rat microglia were harvested and plated in a 96-well plate at a density of 5×10^5 cells/well in 200 μl of serum-free CellGro complete medium (MediaTech, Inc.). In some wells, the medium was supplemented with different concentrations of LPS alone (from E. coli serotype […]; Sigma) while others were supplemented with a combination of LPS and recombinant rat IFN-γ (100 U/ml; R&D Systems). After 24 hours of incubation at 37° C., TNF-α protein in the supernatant of each well was quantified using a Cytoscreen rat-specific TNF-α ELISA kit (Biosource Intl., Camarillo, Calif.), and NO (nitrite) levels in the supernatant of each well were determined using the Griess reaction. All experiments were carried out in triplicate.

For assay [2], the system named is rat microglia. Kind of assay: Nitric oxide (nitrite) production by cultured rat microglia (Griess reaction). Particulars: in the presence of TGF-β. Type of assay: cell-based. As to the method:
as §1
(In general: Nitrite, measured by Griess reagent, commonly stands in for NO production.)

`CNC(=N)NCCC[C@H](N)C(=O)O` [L-NMA, N^G-monomethyl-L-arginine]: in the assay with RG2 glioma cells, the “killing of co-cultured RG2 by LPS/IFN-γ stimulated microglia” value is given as “significantly inhibited”.

With TGF-β, in the assay on rat microglia [1], the “microglial production of TNF-α” value was “concurrent decreases”. Besides, the “microglial production of NO” value with rat microglia [2] was “concurrent decreases”.

For the origin of these results see patent US20030133908A1, “Treatment for intracranial tumors” (priority 2002, published 2003).
